In patent US20250049939A1, “NOVEL FLT3 ANTIBODIES AND ANTIBODY-DRUG-CONJUGATES BASED THEREON, THERAPEUTIC METHODS AND USES THEREOF IN COMBINATION WITH TYROSINE KINASE INHIBITORS” (TUBULIS GmbH, priority 2021, published 2025):
Square brackets hold non-standard residues; d marks the D form. Peptide text beside a SMILES is read from it. Dolaproine = CO[C@@H]([C@@H]1CCCN1)[C@@H](C)C(=O)O; Dil = CC[C@H](C)[C@H](NC)[C@@H](CC(=O)O)OC; NMeV = CN[C@H](C(=O)O)C(C)C

What was measured:
[1] = target: T1, Ba/F3 cells expressing human wildtype FLT3 (Homo sapiens, UniProt P36888); assay: Cytotoxicity in Ba/F3 hFLT3 wt, 72 h; details: Ba/F3 cells expressing the empty vector or human wild type FLT3
T1 sequence (P36888 27-993): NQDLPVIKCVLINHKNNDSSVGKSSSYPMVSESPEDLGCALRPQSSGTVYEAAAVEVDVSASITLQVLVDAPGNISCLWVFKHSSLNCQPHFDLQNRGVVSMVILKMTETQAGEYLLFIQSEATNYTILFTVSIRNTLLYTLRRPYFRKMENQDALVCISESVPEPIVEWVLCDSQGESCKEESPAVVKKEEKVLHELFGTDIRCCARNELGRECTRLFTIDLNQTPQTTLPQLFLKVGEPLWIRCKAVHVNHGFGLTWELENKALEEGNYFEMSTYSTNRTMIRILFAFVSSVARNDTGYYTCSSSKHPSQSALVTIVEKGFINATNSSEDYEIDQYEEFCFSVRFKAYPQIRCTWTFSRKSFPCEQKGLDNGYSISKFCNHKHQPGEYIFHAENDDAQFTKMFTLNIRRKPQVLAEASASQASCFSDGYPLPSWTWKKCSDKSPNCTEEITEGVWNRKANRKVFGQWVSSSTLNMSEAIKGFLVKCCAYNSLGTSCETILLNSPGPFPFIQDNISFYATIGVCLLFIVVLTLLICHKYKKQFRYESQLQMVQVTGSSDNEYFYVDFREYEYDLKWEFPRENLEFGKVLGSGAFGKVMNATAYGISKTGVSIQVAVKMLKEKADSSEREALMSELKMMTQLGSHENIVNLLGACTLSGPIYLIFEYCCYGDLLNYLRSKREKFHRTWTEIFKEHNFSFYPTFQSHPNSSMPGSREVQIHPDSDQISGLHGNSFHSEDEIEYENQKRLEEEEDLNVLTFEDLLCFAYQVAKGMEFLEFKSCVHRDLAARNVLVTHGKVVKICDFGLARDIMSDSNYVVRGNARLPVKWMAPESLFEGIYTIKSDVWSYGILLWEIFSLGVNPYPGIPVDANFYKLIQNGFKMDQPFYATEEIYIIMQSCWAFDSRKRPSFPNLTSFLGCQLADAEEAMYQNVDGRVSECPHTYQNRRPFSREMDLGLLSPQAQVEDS
Experimental: (§1) (A) Schematic process of P5 conjugation technology via disulfite bond reduction and Staudinger induced Michael addition. Final ADC consists of monoclonal antibody (20D9 or IgG1 antibody) coupled to monomethyl-auristatin F toxin. Figure was created with BioRender.com. (B-E,G) Assessment of cytotoxicity of ADCs in different Ba/F3 cell lines. Viability was determined after 72 h treatment with different concentrations by trypan blue exclusion count and compared to untreated control. Mean±s.d. of n=3 biological replicates. […] Calculation based on data from FIGS. 2E and 2G calculated by GraphPad Prism. Unpaired, two-tailed Student's t-test; *p<0.05. Each dot represents a replicate, horizontal line indicates mean.
(§2) AML cells were treated once (d0) and viability was determined after 96h using Resazurin solution (50 µM final concentration, 4 h incubation) (R12204, Thermo Fisher Scientific). For Ba/F3 cell assays, cells were treated once (d0) and viable cells were counted after 72 h on Vi-Cell Cell Viability Analyzer (Beckman Coulter, Krefeld, Germany). Calculation of IC50 values were performed using GraphPad Prism version 6.07 (GraphPad Software, La Jolla, CA, USA).

[2] = system: FLT3 cell surface expression in MOLM-13 cells; assay: FLT3 cell surface expression in MOLM-13 after kinase inhibitors, flow cytometry; type: cell-based, human; details: 6, 24, 48 and 72 h incubation
Experimental: Cells were analyzed in flow cytometry after treatment. Dotted line represents MFI ratio of untreated cells. Mean±s.d. of n=2 is depicted. […] Grey triangles indicate increasing drug concentrations. […] Mean±standard deviation is depicted.

[3] = system: MOLM-13 xenograft; assay: MOLM-13 xenograft in NSG mice, bioluminescence imaging; type: in vivo; details: 3 mg/kg; Q1W×2
[4] = system: Ba/F3-pMIY-CD64 expressing cells; assay: Cytotoxicity in Ba/F3-pMIY-CD64, 72 h; type: cell-based, human
Experimental: as §1, §2

[5] = system: CD34 positive healthy bone marrow (BM) cells; assay: Viability of healthy CD34+ bone marrow cells, Annexin V/PI, 4 days; details: 1000 ng/ml
Description: (C) Percentage of living cells measured with Annexin V/PI staining and normalized to PBS.

[6] = system: CD34 positive healthy bone marrow (BM) cells; assay: Differentiation assessment of healthy CD34+ cells; details: 1 μg/ml
Description: (§3) (D) Differentiation assessment after staining to differentiation markers. CMP: common myeloid GMP: progenitors; granulocyte-monocyte progenitors; MEP: megakaryocyte/erythroid progenitors; MLP: multilymphoid progenitors; MPP: multipotent progenitors; hematopoietic stem cells (HSC). (E) Assessment of clonogenic capacity of healthy CD34+ BM cells. […] After 14 days, colonies were counted. GEMM: granulocyte, erythrocyte, macrophage, megakaryocyte. GM: granulocyte, macrophage. M: macrophage. G: granulocyte. E: erythrocyte. BFU-E: burst-forming unit erythrocyte. CFU: colony forming unit. 2way ANOVA; *p<0.05; Mean±s.d. of n=5.

[7] = system: Ba/F3 cells expressing both FLT3 and CD64; assay: Cytotoxicity in Ba/F3-CD64-FLT3, 72 h; type: cell-based, human
Experimental: as §1, §2

[8] = system: healthy CD34+ BM cells; details: 1 μg/ml
Description: as §3

[9] = system: MOLM-13 cells; assay: Cytotoxicity in MOLM-13, 96 h resazurin; type: cell-based, human
Description: (A) Correlation of MFI of CD64 cell surface expression and MFI of FLT3 cell surface expression of myeloid human cell lines measure in flow cytometry. Expression data presented in Supplementary FIGS. 4A and B. Black line indicates simple linear regression with error interval. r=Pearson correlation coefficient; r^2=Coefficient of determination; p=p value from two tailed test with confidence interval of 95%. MFI=mean fluorescence intensity. (B,C,E,F) Assessment of cytotoxicity of ADCs in different human cell lines. Viability was determined after 96h treatment with different concentrations of ADCs by resazurin fluorescence and normalized to untreated control. Dashed line indicates 100 ng/ml drug concentration. Mean±s.d. of n=3 biological replicates. […] Black line indicates simple linear regression with error interval. (E) Treatment of FLT3 positive human cell lines with IgG1-ADC.

**Q.** Which Cytotoxicity of controls [1] does the source give for `CC[C@H](C)[C@@H]([C@@H](CC(=O)N1CCC[C@H]1[C@H](OC)[C@@H](C)C(=O)N[C@@H](Cc1ccccc1)C(=O)O)OC)N(C)C(=O)[C@@H](NC(=O)[C@@H](NC)C(C)C)C(C)C` [MMAF, monomethyl auristatin F] (H-[NMeV]V[Dil][Dolaproine]F-OH) here?
**A.** no difference in cytotoxicity

**Q.** With `CNC(=O)c1cc(Oc2ccc(NC(=O)Nc3ccc(Cl)c(C(F)(F)F)c3)cc2)ccn1` [Sorafenib] as the compound, how does the “FLT3 cell surface expression” value [2] read?
**A.** increase of FLT3 cell surface expression

**Q.** “IgG1-ADC: MMAF conjugated to the IgG1 based antibody palivizumab; CD64 but no FLT3 binding” was tested. Which Cytotoxicity of controls [1] did it give?
**A.** no cytotoxicity

**Q.** And the “Anti tumor effect, native and deglycosylated ADCs” value [3]?
**A.** reduced compared to native 20D9-ADC

**Q.** And the “IC50, Ba/F3-pMIY-CD64” value [4]?
**A.** 31.8 ng/ml

**Q.** What about the “Cell viability of CD34+ cells” value [5] of the same compound?
**A.** significantly decreased cell viability

**Q.** And the “Differentiation: cell populations of CD34+ cells” value [6]?
**A.** significantly decreased MLPs, CMPs, and GMPs but to a lower extent compared to the 20D9 ADC

**Q.** What about the “IC50, Ba/F3 expressing both FLT3 and CD64” value [7] of the same compound?
**A.** 0.0783 µg/mL

**Q.** What about the “Clonogenic capacity (CFU)” value [8] of the same compound?
**A.** significantly reduced granulocytic, monocytic and granulocytic-macrophagic colony formation

**Q.** Which results are given for “deglycosylated IgG1-ADC: IgG1-ADC with N-linked glycans removed”?
**A.** Anti tumor effect, native and deglycosylated ADCs [3]: only a minimal effect compared to PBS control mice; Activity on MOLM-13 cells [9]: no activity
